According to patent US6562804B2, “Hair-growing agent” (Kyowa Hakko Kogyo Co., Ltd., priority 2001, dated 2003):

Tested on: mouse hair follicle epithelial cells
Test: Cell growth-promoting effect on cultured mouse hair follicle epithelial cells (MTT)
Format: cell-based
Conditions: C3H mouse hair follicle epithelial cells, 5 days culture, DMSO control = 100
Method: Mouse hair follicle epithelial cells were separated and cultured according to a modification of the method of Tanigaki, et al. [Archives of Dermatological Research, 284, 290-296 (1992)].
The skin on the back of a 4-days-old C3H mouse (Charles River Japan, Inc.) was cut off and treated with MEM (Eagle's Minimum Essential Medium) containing 500 units/ml Dispase (Godo Shusei Co., Ltd.) and 5% fetal calf serum (FCS) at 4° C. for 16 hours.
Then, the epidermis was stripped from the skin section, and the obtained dermis layer was treated with DMEM (Dulbecco's modified Eagle Medium) containing 0.25% Collagenase N-2 (Nitta Gelatin Co., Ltd.) and 10% FCS at 37° C. for one hour to obtain a dermis suspension. The dermis suspension was filtered through a 212-μm nylon mesh (Nippon Rikagaku Kikai Co., Ltd.) and the filtrate was centrifuged at 1000 rpm for 5 minutes to obtain pellets containing hair follicle tissue. To the pellets was added calcium/magnesium-free PBS (Dulbecco's Phosphate-Buffered Saline) and the pellets were suspended therein using a pipette. The resulting suspension was allowed to stand for 15 minutes to precipitate hair follicle tissue. The same procedure as above (addition of calcium/magnesium-free PBS, suspending by use of a pipette, and precipitation by allowing the suspension to stand for 15 minutes) was repeated three times using the obtained hair follicle tissue.
Then, the hair follicle tissue was treated with a solution containing 0.1% ethylenediaminetetraacetic acid (EDTA) and 0.25% trypsin (Gibco) at 37° C. for 5 minutes. To the resulting mixture was added DMEM containing 10% FCS to prepare a hair follicle tissue cell suspension having a density of 3×10^5 cells/ml. The hair follicle tissue cell suspension was put into wells of a 24-well collagen-coated plate (Iwaki Glass Co., Ltd.) in an amount of 1 ml/well, followed by culturing in 5% CO2 at 37° C. for 24 hours.
During the culturing, the medium was replaced with a fresh one every other day.
As a control, the cells were cultured in the same medium as above except that DMSO alone was added in an amount of 1/100 by volume in place of DMSO containing a phosphatidic acid, and/or procyanidin B-2 or dl-α-tocopherol.
The degree of cell growth was measured according to the method using MTT [3-(4,5-dimethylthiazol-2-yl)-2,5-diphenyl tetrazolium bromide]
To each well of the 24-well microplate (2 cm^2/well) was added a PBS solution of MTT (5 mg/ml) in an amount of 1/10 by volume based on 1 ml of the culture. The plate was shaken to make the mixture homogeneous, followed by culturing in 5% CO2 at 37° C. for 4 hours.

Row | SMILES | Relative cell growth rate based on the control as 100 (active ingredient 30 μmol/l) | Relative cell growth rate based on the control as 100 (active ingredient 1 μmol/l)
1 | Cc1c(C)c2c(c(C)c1O)CCC(C)(CCCC(C)CCCC(C)CCCC(C)C)O2 (racemic) [dl-α-Tocopherol, dl-α-tocopherol, reference compound] | 184 | –
2 | CCCCCCCCCCCCCCCCOCC(COP(=O)(O)O)OC(C)=O (centres unmarked) [1-O-hexadecyl-2-O-acetylglyceryl-3-phosphoric acid] | – | 155
3 | CCCCCCCCCCCCCCCCOCC(COP(=O)(O)O)OC (centres unmarked) [1-O-hexadecyl-2-O-methylglyceryl-3-phosphoric acid] | – | 177
4 | CCCCCCCC/C=C\CCCCCCCC(=O)OCC(COP(=O)(O)O)OC (centres unmarked) [1-O-oleoyl-2-O-methylglyceryl-3-phosphoric acid] | – | 163
5 | Oc1cc(O)c2c(c1)O[C@H](c1ccc(O)c(O)c1)[C@H](O)[C@H]2c1c(O)cc(O)c2c1O[C@H](c1ccc(O)c(O)c1)[C@H](O)C2 [Procyanidin B-2, epicatechin-(4β→8)-epicatechin] | 310 | –
